Measured values from patent US20090023200A1, “PARTICLE FOR DETECTING ENZYME ACTIVITY, METHOD FOR DETECTING THE ENZYME ACTIVITY AND ENZYME ACTIVITY DETECTION DEVICE BY THE USE THEREOF” (priority 2005, published 2009).
Square brackets hold non-standard residues; d marks the D form. Ends that are not written are not given here. * marks the point of attachment. FITC = O=C1OC2(c3ccc(O)cc3Oc3cc(O)ccc32)c2ccc(NC(=S)*)cc21; Dnp = O=[N+]([O-])c1ccc(*)c([N+](=O)[O-])c1; βAla = NCCC(=O)O

Tests used:
Assay type in all cases: biochemical
trypsin [1] = assay: Trypsin cleavage of particles for detecting enzyme activity, fluorescence change (Example 2); conditions: trypsin 100 units, 1 mg particle, difference 60 minutes after adding sample solution vs before; excitation 485 nm, fluorescence 535 nm
Procedure: To each 1 mg of the particle for detecting the enzyme activity of the samples 9 to 21, 190 μL of 20 mM Tris-HCl buffer (pH 8.0, 100 mM NaCl, 50 mM CaCl2) containing 0.01% Tween 20 was added, to which […] of trypsin aqueous solution (100 units) as the sample solution was added. Every measurement time, 10 μL of the sample was taken and 190 μL of the buffer was added, the mixture was transferred to the 96-well plate, and fluorescence values were measured (measurement time: 0.1 seconds) using Wallac 1420 ARVO sx plate reader manufactured by PerkinElmer. The changed amount (difference between the fluorescence value 60 minutes after adding the sample solution and the fluorescence value before adding the sample solution) of the fluorescence value 60 minutes after adding the sample solution is shown in the column on the right in Table 2 (excitation wavelength: 485 nm, fluorescence wavelength: 535 nm).

subtilisin [2] = assay: Subtilisin cleavage of particles for detecting enzyme activity, fluorescence change (Example 1); conditions: for Fluorescence value (changed amount): subtilisin 10 units, 1 mg particle, difference 20 minutes after adding sample solution vs before, excitation 485 nm, fluorescence 535 nm
Procedure: To each 1 mg of the particle for detecting the enzyme activity of the samples 1 to 8, 190 μL of 20 mM Tris-HCl buffer (pH 8.0, 100 mM NaCl, 50 mM CaCl2) containing 0.01% Tween 20 was added, to which 10 μL of subtilisin aqueous solution (10 units) as a sample solution was added. Every measurement time, 10 μL of the sample was taken and 190 μL of the buffer was added, the mixture was transferred to a 96-well plate, and fluorescence values were measured (measurement time: 0.1 seconds) using Wallac 1420 ARVO sx plate reader manufactured by PerkinElmer. A changed amount (difference between the fluorescence value 20 minutes after adding the sample solution and the fluorescence value before adding the sample solution) of the fluorescence value 20 minutes after adding the sample solution is shown in the column on the right in Table 1 (excitation wavelength: 485 nm, fluorescence wavelength: 535 nm).

elastase = assay: Elastase cleavage of particles, fluorescence change (Example 3); conditions: for Fluorescence value Elastase (changed amount): elastase 10 units, 1 mg particle, difference 60 minutes after adding sample solution vs before, excitation 485 nm, fluorescence 535 nm
Procedure: (§1) To each 1 mg of the particle for detecting the enzyme activity of the samples 22 to 25, 190 μL of 20 mM Tris-HCl buffer (pH 8.0, 100 mM NaCl, 50 mM CaCl2) containing 0.01% Tween 20 was added, to which 10 μL of elastase aqueous solution (10 units), 10 μL of trypsin aqueous solution (10 units) and 10 μL of subtilisin aqueous solution (10 units) as the sample solution was added. Every measurement time, 10 μL of the sample was taken and 190 μL of the buffer was added, the mixture was transferred to the 96-well plate, and fluorescence values were measured (measurement time: 0.1 seconds) using Wallac 1420 ARVO sx plate reader manufactured by PerkinElmer. The changed amount (difference between the fluorescence value 60 minutes after adding the sample solution and the fluorescence value before adding the sample solution) of the fluorescence value […] the sample solution is shown in the column on the right in Table 3 (excitation wavelength: 485 nm, fluorescence wavelength: 535 nm).

trypsin [3] = assay: Trypsin cleavage of particles, fluorescence change (Example 3); conditions: for Fluorescence value Trypsin (changed amount): trypsin 10 units, 1 mg particle, difference 60 minutes after adding sample solution vs before, excitation 485 nm, fluorescence 535 nm
Procedure: as §1

subtilisin [4] = assay: Subtilisin cleavage of particles, fluorescence change (Example 3); conditions: subtilisin 10 units, 1 mg particle, difference 60 minutes after adding sample solution vs before; excitation 485 nm, fluorescence 535 nm
Procedure: as §1

Substance: Sample 19: PEGA resin particle bearing FITC-β-Ala-Phe-Phe-Arg-Lys, Dnp quencher on lysine ({FITC}-[βAla]FFRK(Dnp); also: attached to PEGA resin particle)
- Fluorescence value (changed amount) (trypsin [1]): 8

Substance: Sample 1: PEGA resin particle bearing FITC-β-Ala-Pro-Leu-Gly-Lys, Dnp quencher on lysine ({FITC}-[βAla]PLGK(Dnp); also: attached to PEGA resin particle)
- Fluorescence value (changed amount) (subtilisin [2]): 14.8
- difference in the changed amount of the fluorescence values, sample 1 (highest activity) vs sample 8 (lowest activity) (subtilisin [2]; subtilisin, 20 minutes): ≥ 10 times

Substance: Sample 21: PEGA resin particle bearing FITC-β-Ala-Pro-Phe-Arg-Lys, Dnp quencher on lysine ({FITC}-[βAla]PFRK(Dnp); also: attached to PEGA resin particle)
- Fluorescence value (changed amount) (trypsin [1]): 3

Substance: Sample 15: PEGA resin particle bearing FITC-β-Ala-Gly-Lys-Arg-Lys, Dnp quencher on lysine ({FITC}-[βAla]GKRK(Dnp); also: attached to PEGA resin particle)
- Fluorescence value (changed amount) (trypsin [1]): 18

Substance: Sample 20: PEGA resin particle bearing FITC-β-Ala-His-Leu-Lys-Lys, Dnp quencher on lysine ({FITC}-[βAla]HLKK(Dnp); also: attached to PEGA resin particle)
- Fluorescence value (changed amount) (trypsin [1]): 7

Substance: Sample 16: PEGA resin particle bearing FITC-β-Ala-Gly-Arg-Arg-Lys, Dnp quencher on lysine ({FITC}-[βAla]GRRK(Dnp); also: attached to PEGA resin particle)
- Fluorescence value (changed amount) (trypsin [1]): 14

Substance: Sample 2: PEGA resin particle bearing FITC-β-Ala-Ala-Pro-Ala-Lys, Dnp quencher on lysine ({FITC}-[βAla]APAK(Dnp); also: attached to PEGA resin particle)
- Fluorescence value (changed amount) (subtilisin [2]): 7.9

Substance: Sample 12: PEGA resin particle bearing FITC-β-Ala-His-Glu-Lys-Lys, Dnp quencher on lysine ({FITC}-[βAla]HEKK(Dnp); also: attached to PEGA resin particle)
- Fluorescence value (changed amount) (trypsin [1]): 45

Substance: Sample 13: PEGA resin particle bearing FITC-β-Ala-Ser-Ala-Arg-Lys, Dnp quencher on lysine ({FITC}-[βAla]SARK(Dnp); also: attached to PEGA resin particle)
- Fluorescence value (changed amount) (trypsin [1]): 24

Substance: Sample 22: PEGA resin particle bearing FITC-β-Ala-Leu-Leu-Glu-Lys, Dnp quencher on lysine ({FITC}-[βAla]LLEK(Dnp); also: attached to PEGA resin particle)
- Fluorescence value Elastase (changed amount) (elastase): 38
- fluorescence change by trypsin activity relative to that by subtilisin activity (trypsin [3]; Table 3 values, same particle): about 1/240
- Fluorescence value Trypsin (changed amount) (trypsin [3]): 2
- Fluorescence value Subtilisin (changed amount) (subtilisin [4]): 481

Substance: Sample 11: PEGA resin particle bearing FITC-β-Ala-Pro-Arg-Gly-Lys, Dnp quencher on lysine ({FITC}-[βAla]PRGK(Dnp); also: attached to PEGA resin particle)
- Fluorescence value (changed amount) (trypsin [1]): 51

Substance: Sample 24: PEGA resin particle bearing FITC-β-Ala-Asn-Leu-Asp-Lys, Dnp quencher on lysine ({FITC}-[βAla]NLDK(Dnp); also: attached to PEGA resin particle)
- Fluorescence value Elastase (changed amount) (elastase): 23
- Fluorescence value Trypsin (changed amount) (trypsin [3]): 5
- Fluorescence value Subtilisin (changed amount) (subtilisin [4]): 446

Substance: Sample 10: PEGA resin particle bearing FITC-β-Ala-Asp-Gly-Arg-Lys, Dnp quencher on lysine ({FITC}-[βAla]DGRK(Dnp); also: attached to PEGA resin particle)
- Fluorescence value (changed amount) (trypsin [1]): 57

Substance: Sample 3: PEGA resin particle bearing FITC-β-Ala-Ala-Pro-Val-Lys, Dnp quencher on lysine ({FITC}-[βAla]APVK(Dnp); also: attached to PEGA resin particle)
- Fluorescence value (changed amount) (subtilisin [2]): 1.2

Substance: Sample 17: PEGA resin particle bearing FITC-β-Ala-Pro-Arg-Leu-Lys, Dnp quencher on lysine ({FITC}-[βAla]PRLK(Dnp); also: attached to PEGA resin particle)
- Fluorescence value (changed amount) (trypsin [1]): 10

Substance: Sample 25: PEGA resin particle bearing FITC-β-Ala-Ala-Pro-Leu-Lys, Dnp quencher on lysine ({FITC}-[βAla]APLK(Dnp); also: attached to PEGA resin particle)
- Fluorescence value Elastase (changed amount) (elastase): 134
- Fluorescence value Trypsin (changed amount) (trypsin [3]): 11
- Fluorescence value Subtilisin (changed amount) (subtilisin [4]): 428

Substance: Sample 18: PEGA resin particle bearing FITC-β-Ala-Thr-Arg-Val-Lys, Dnp quencher on lysine ({FITC}-[βAla]TRVK(Dnp); also: attached to PEGA resin particle)
- Fluorescence value (changed amount) (trypsin [1]): 9

Substance: Sample 23: PEGA resin particle bearing FITC-β-Ala-Ala-Pro-Ala-Lys, Dnp quencher on lysine ({FITC}-[βAla]APAK(Dnp); also: attached to PEGA resin particle)
- fluorescence change by elastase activity relative to that by subtilisin activity (elastase; Table 3 values, same particle): about 2 times
- Fluorescence value Elastase (changed amount) (elastase): 582
- Fluorescence value Trypsin (changed amount) (trypsin [3]): 13
- Fluorescence value Subtilisin (changed amount) (subtilisin [4]): 291

Substance: Sample 14: PEGA resin particle bearing FITC-β-Ala-Asn-Pro-Arg-Lys, Dnp quencher on lysine ({FITC}-[βAla]NPRK(Dnp); also: attached to PEGA resin particle)
- Fluorescence value (changed amount) (trypsin [1]): 18
